≈ marks a conversion by molar mass, not a printed value.
System: P388
Test: Antileukemic activity against mouse P388 cells xenografted in mouse at 1 mg/kg dosed for 3 days relative to control
Type: functional
Settings: not given

`CCC[C@@H](O)/C=C/C=C/C=C/C#CC#CCCCO` [CICUTOXIN] was tested. Which T/C did it give?
The T/C was 165%.

System: P388
Test: Antileukemic activity against mouse P388 cells xenografted in mouse at 200 mg/kg dosed for 1 day relative to control
Type: functional
Settings: not given

`O=c1[nH]cc(F)c(=O)[nH]1` [FLUOROURACIL] was tested. Which T/C did it give?
Its T/C is 135%.

System: KB
Test: Cytotoxicity against human KB cells
Type: functional
Settings: read-out: ED50 (the source's name)

`CCC[C@@H](O)/C=C/C=C/C=C/C#CC#CCCCO` [CICUTOXIN] was tested. Which EC50 did it give?
Its EC50 is 2 µg/mL (≈ 7.74 µM).

Which EC50 does the source give for `CCCC(/C=C/C=C/C=C/C#CC#CCCCOC(C)=O)OC(C)=O` (centres undefined) here?
The EC50 was > 4 µg/mL.

For `CCCC(=O)/C=C/C=C/C=C/C#CC#CCCCO`, which EC50 is on record?
Its EC50 is > 4 µg/mL.

`CCCC(/C=C/C=C/C=C/C#CC#CCCCOCOCc1ccccc1)OCOCc1ccccc1` (centres undefined) was tested. Which EC50 did it give?
Its EC50 is > 4 µg/mL.

`CCCC(/C=C/C=C/C=C/C#CC#CCCCOCOCCOC)OCOCCOC` (centres undefined) was tested. Which EC50 did it give?
Its EC50 is > 4 µg/mL.

With `CCCC(O)/C=C/C=C/C=C/C#CC#CCCCOC(=O)c1ccccc1` (centres undefined) as the compound, how does the EC50 read?
Its EC50 is > 4 µg/mL.

How did the EC50 turn out when `CCCC(O)CCCCCCCCCCCCCO` (centres undefined) was run?
The EC50 was > 4 µg/mL.
